Experimental data published in PMC11352273, “The Proapoptotic Action of Pyrrolidinedione–Thiazolidinone Hybrids towards Human Breast Carcinoma Cells Does Not Depend on Their Genotype” (Cancers, 2024).
Like-named read-outs stand apart in the source and are kept apart here.

How the values were obtained:
[1] = tested on: HCC1954 cells; test: MTT assay; format: cell-based; conditions: Homo sapiens, read-out: IC50, µM (M ± SD)
Experimental: (§1) The MCF-7 and MDA-MB-231 cells were cultured in the DMEM medium containing 10% of the FBS, HCC1954, T-47D, and 4T1 cells in the RPMI-1640 medium with the addition of 10% of the FBS, and MCF-10A cells in MEGM Mammary Epithelial Cell Growth Medium BulletKit supplemented with penicillin/streptomycin cocktail and 5% of horse serum. The cells were cultured in a […] atmosphere at 5% CO2 and 37 °C. After trypsinization, cells were counted using a Scepter 3.0 handheld automated cell counter (Millipore, Burlington, MA, USA).
(§2) The MTT test was used to assess the metabolic activity of cells treated with the investigated substances following the Sigma-Aldrich manufacturer’s instructions. Briefly, compounds were added in 100 µL of the cultural medium, and cells were incubated for the next 24 and 48 h. Doxorubicin was used as a reference drug. The DMSO was added to dissolve the crystals of formazan. We used the ThermoScientific Evolution 201 UV–VIS spectrophotometer (ThermoFisher Scientific, Waltham, MA, USA) to measure the absorbance of formazan at 570 nm. The initial value of the relative number of cells in control (under 0.1% of the DMSO) was accepted as 100%. We used GraphPad Prism Version 9 to calculate the half-maximal inhibition concentration (IC50) of the studied compounds (the concentration of the drug that reduced cell viability by 50%).

[2] = tested on: MCF-7 cells; test: MTT assay; format: cell-based; conditions: Homo sapiens, read-out: IC50, µM (M ± SD)
Experimental: as §1, §2

[3] = tested on: T-47D cells; test: MTT assay; format: cell-based; conditions: Homo sapiens, T47D, read-out: IC50, µM (M ± SD)
Experimental: as §1, §2

[4] = tested on: MDA-MB-231 cells; test: MTT assay; format: cell-based; conditions: Homo sapiens, read-out: IC50, µM (M ± SD)
Experimental: as §1, §2

[5] = tested on: ICAM-1 in MDA-MB-231 cells; test: ICAM-1 ELISA in culture supernatants; format: cell-based, human; conditions: for ICAM-1 concentration: 2 µM (highest dose), control 841.55 pg/mL
Experimental: (§3) In order to determine the Beclin-1 concentration in the cell lysates, the SimpleStep ELISA (Abcam, Cambridge, UK) Kit was used. MMP-2, MMP-9, and ICAM-1 concentrations were measured in culture supernatants using high-sensitivity human SimpleStep ELISA kits (Abcam, Cambridge, UK) according to the manufacturer’s protocols. The LC3B ELISA kit (BT LAB, Shanghai, China) was used to check the protein concentration in cell lysates from analyzed breast cancer cells. The procedure for preparing the samples was shown previously.

[6] = tested on: MCF-10A cells; test: MTT assay; format: cell-based, human; conditions: Homo sapiens, MCF-10A, MCF-10A
Experimental: as §1, §2

[7] = tested on: 4T1 cells; test: MTT assay; format: cell-based, murine; conditions: Mus musculus, read-out: IC50, µM (M ± SD)
Experimental: as §1, §2

[8] = tested on: MCF-7 cells; test: [3H]-thymidine incorporation assay; format: cell-based; conditions: Homo sapiens, MCF7; MCF-7, 24 h; read-out: IC50 (M ± SD) in [3H]-thymidine assay (DNA synthesis)
Experimental: Following a 24 h cell treatment, the incorporation of [^3H]-thymidine into the DNA of the breast tumor and normal cells was used to measure the antiproliferative activity of Les-6287. The MCF-7, MDA-MB-231, HCC1954, and MCF-10A cells were seeded into six-well plates (density 3 × 10^5 cells/well) and cultured for 24 h. Then, they were incubated under the same conditions for the next 24 h with a growth medium containing the tested compounds and reference drug (doxorubicin) at different concentrations (1, 2.5, 5, 10, 50 µM). After 24 h, the medium was changed to a fresh one without FBS. A total of 0.5 µCi of tritium-labeled thymidine (specific activity: 7 Ci/mmol) was added to cells for 4 h. The cells were washed with 1 mL of 0.05 M Tris-HCl buffer pH 7.4 containing 0.11 M NaCl and 1 mL of 5% trichloroacetic acid (TCA). Each well was filled with 1 mL of a 0.1 M NaOH solution containing 1% SDS to complete cell lysis. After 5 min, the acquired cell lysates were put into scintillation vials and pre-filled with two milliliters of scintillation liquid. The Scintillation Counter 1900 TR, TRI-CARB (Packard, Perkin Elmer, Inc., San Jose, CA, USA) was used to record the results. The effect of compounds on DNA synthesis was expressed as % of the control (non-treated cells).

[9] = tested on: MAP1LC3B in MCF-7 cells; test: qPCR gene expression; format: cell-based, human; conditions: MCF-7, 24 h, 1 µM
Experimental: (§4) Total RNA was isolated using the RNeasy Mini Kit (Qiagen, Venlo, The Netherlands) according to the manufacturer’s protocol and quantified on a NanoDrop spectrophotometer (NanoDrop™ One/OneC, ThermoFisher, Waltham, MA, USA). Next, 1 μg of RNA from every sample was reverse transcribed using a High-Capacity cDNA Reverse Transcription Kit (ThermoFisher, Waltham, MA, USA) according to the standard manufacturer’s instructions. The expression of genes, namely MAP1LC3b (Bio-Rad, Hercules, CA, USA) and BECN1 (Bio-Rad, Hercules, CA, USA), was evaluated using SsoAdvanced Universal SYBR Green Supermix (Bio-Rad, Hercules, CA, USA) on the StepOne Plus system (ThermoFisher, Waltham, MA, USA). StepOne Software v2.3 (Thermo Fisher Scientific, Waltham, MA, USA) was used for results calculations. The results were normalized to GAPDH (Bio-Rad, Hercules, CA, USA) and untreated cells (control). Data were presented as a relative expression using the 2^−ΔΔCt method.

[10] = tested on: MAP1LC3B in MDA-MB-231 cells; test: qPCR gene expression; format: cell-based, human; conditions: MDA-MB-231, 24 h, 1 µM
Experimental: as §4

[11] = tested on: BECN1 in MDA-MB-231 cells; test: qPCR gene expression; format: cell-based, human; conditions: MDA-MB-231, 24 h, 1 µM
Experimental: as §4

[12] = tested on: BECN1 in MCF-7 cells; test: qPCR gene expression; format: cell-based, human; conditions: MCF-7, 24 h, 1 µM
Experimental: as §4

[13] = tested on: MMP-9 in MDA-MB-231 cells; test: MMP-9 ELISA in culture supernatants; format: cell-based, human; conditions: MDA-MB-231, 24 h, all examined doses
Experimental: as §3

[14] = 24 h, 24 h, read-out: IC50, µM (M ± SD)
[15] = 48 h, 48 h, read-out: IC50, µM (M ± SD)

IC50 ([1]; HCC1954, 24 h) [µM] | IC50 ([1]; HCC1954, 48 h) [µM] | IC50 ([2]; MCF7, MCF-7, 24 h) [µM] | IC50 ([2]; MCF7, MCF-7, 48 h) [µM] | IC50 ([3]; 24 h) [µM] | IC50 ([3]; 48 h) [µM] | IC50 ([4]; MDA-MB-231, 24 h) [µM] | IC50 ([4]; MDA-MB-231, 48 h) [µM] | IC50 ([7]; 4T1, 24 h) [µM] | IC50 ([7]; 4T1, 48 h) [µM] | IC50 [8] [µM] | Structure (SMILES) | ICAM-1 concentration ([5]; MDA-MB-231, 24 h) [pg/mL] | IC50 [6, 14] [µM] | IC50 [6, 15] [µM] | MAP1LC3B gene expression compared to control cells [9] | MAP1LC3B gene expression compared to control cells [10] | BECN1 gene expression compared to control cells [11] | BECN1 gene expression compared to control cells [12] | MMP-9 concentration versus control [13] | other results
2.52 ± 0.65 | 2.25 ± 0.64 | 2.34 ± 0.16 | 1.43 ± 0.18 | 3.11 ± 0.19 | 1.74 ± 0.25 | 3.86 ± 0.24 | 1.37 ± 0.15 | 1.6 ± 0.14 | 1.62 ± 0.21 | 2.37 ± 0.02 | O=C1CC(N2C(=O)C(=CC(Cl)=Cc3ccc([N+](=O)[O-])cc3)SC2=S)C(=O)N1c1ccc(O)cc1 (centres unmarked) [Les-6287, 1-(4-hydroxyphenyl)-3-[5-[2-chloro-3-(4-nitrophenyl)prop-2-enylidene]-4-oxo-2-thioxothiazolidine-3-yl]pyrrolidine-2,5-dione] | 157.25 | 93 ± 2.29 | 64.6 ± 0.68 | did not affect | did not affect | did not affect | did not affect | decreased | inhibitory effect on ICAM-1 concentration relative to doxorubicin ([5]; MDA-MB-231): almost four times stronger; IC50 ([6]; time point not specified (24 and 48 h), read-out: IC50 towards MCF-10A cells): > 64.6 µM
1.9 ± 0.11 | 1.15 ± 0.16 | 3.47 ± 0.49 | 0.18 ± 0.07 | 3.66 ± 0.33 | 2.31 ± 0.24 | 6.18 ± 0.08 | 1.09 ± 0.09 | 2.37 ± 0.25 | 1.98 ± 0.21 | 0.66 ± 0.13 | COc1cccc2c1C(=O)c1c(O)c3c(c(O)c1C2=O)C[C@@](O)(C(=O)CO)C[C@@H]3O[C@H]1C[C@H](N)[C@H](O)[C@H](C)O1 [Dox, doxorubicin, reference compound] | 583.04 | 15.9 ± 0.91 | 0.23 ± 0.05 | significantly increased | significantly increased | significantly increased | significantly increased | decreased | ICAM-1 concentration versus control ([5]; MDA-MB-231, 24 h, 1.0 and 1.5 µM): increased
